In test [1] the test system is EPC2 human esophageal keratinocytes. The test can be described thus: Stimulation of EPC2-hTERT human esophageal keratinocytes with Poly(I:C). The format is cell-based. To be noted: 24 hours, increasing concentrations; for percent inhibition relative to Stimulated of TSLP expression: FIG. 19A; for percent inhibition relative to Stimulated of IL-6 expression: FIG. 19B; for percent inhibition relative to Stimulated of MCP-1 expression: FIG. 19C. The protocol:
EPC2-hTERT (EPC2) cells were maintained in supplemented keratinocyte serum-free medium (KSFM) with 0.09 mM calcium chloride containing epidermal growth factor (5 ng/mL), bovine pituitary extract ([…]), penicillin (100 units/mL), and streptomycin ([…]) (ThermoFisher #17005042) at 37° C. with 5% (v/v) CO2. EPC2 cells were seeded in 12-well plates at 0.55×10^6 cells per well in supplemented KSFM at 37° C. with 5% (v/v) CO2 and after 6 hours the old media is removed and changed with fresh media. After overnight incubation, the old media is changed to supplemented KSFM containing 1.8 mM calcium chloride and incubated for 72 hours at 37° C. with 5% (v/v) CO2. After the old media is removed and fresh supplemented KSFM containing 1.8 mM calcium chloride is added, the cells are pre-treated with different concentrations of compounds (0, 1, 10, 100, 500, 1000 μM) for 1 hour prior to stimulation. To stimulate the cells, Poly (I:C) (Tocris #4287) is added to the wells at […] concentration without removing the media and incubated for 24 hours at 37° C. with 5% (v/v) CO2. Supernatants are collected in Eppendorf tubes, centrifuged in a microfuge at maximum speed for 10 minutes at 4° C., and the centrifuged supernatants stored at −80° C. until quantitative detection assays are performed. Human Interleukin-6 (IL-6), Monocyte Chemoattractant Protein-1 (MCP-1), and Thymic stromal lymphopoietin (TSLP) released from supernatants collected post stimulation were measured using the AlphaLISA detection kit for human IL-6, MCP-1, and TSLP, respectively.

Test [2] concerns THP1 human macrophage cells. The test can be described thus: Stimulation of THP-1 cells, IL-6 at 6 or 36 hours post stimulation. The format is cell-based. To be noted: THP1-derived macrophages, IFNγ + LPS, 0.1 to 500 μM, FIG. 9. The protocol: Human immortalized monocytic THP-1 cells were maintained in phenol red free RPMI 1640 medium containing 10% (v/v) fetal bovine serum (FBS), 2 mM L-glutamine, penicillin (100 units/mL), streptomycin (100 μg/mL), amphotericin B (2.5 μg/mL), and 50 μM beta-mercaptoethanol (BME) at 37° C. with 5% (v/v) CO2. THP-1 cells were seeded in 1 mL of THP-1 medium (cell culture medium containing 10% (v/v) FBS, 2 mM L-glutamine, penicillin (100 units/mL), streptomycin (100 μg/mL), amphotericin B ([…]), and 50 μM BME)/well at a density of 1×10^6 cells/mL in six-well plates. Cells were differentiated by adding 10, 50, or 100 nM phorbol 12-myristate 13-acetate (PMA) to each well before incubating cells for 5.5 h at 37° C. with 5% (v/v) CO2. Without removing the media, different concentrations (either 0, 0.1, 1.0, 10, 100, 200, or 500 μM) of the compound were added to each well. Cells were stimulated, within 30 min by adding 20 ng/mL interferon gamma (IFNγ) and 100 ng/mL lipopolysaccharide (LPS) to each well. Following stimulation, the THP-1 cells were incubated for 6 or 36 hours at 37° C. with 5% (v/v) CO2. Supernatant was collected and stored at −80° C. until use.
IL-6 released from supernatants collected at 6 or 36 hours post stimulation with IFNγ and LPS were measured using the AlphaLISA Human IL-6 detection kit.

Another test relates to human naïve T cells. The test can be described thus: Stimulation of blood derived naïve T cells with Der p1 (house dust mite) antigen. The conditions noted are these: at 100 μM; human T cells, Der p1 antigen; FIG. 15. The test is classed as cell-based. The procedure:
Naïve T cells from peripheral blood samples were collected and processed using MACSxpress® Whole Blood Pan T Cell Isolation Kit (Miltenyi Biotec), according to the manufacturer's protocol. Isolated naïve T cells were cultured in RPMI medium supplemented with 5% Fetal Bovine Serum (FBS) at 37° C. with 5% (v/v) CO2. T cells were seeded in 24 well plates at a density of 0.5×10^6 cells per well. The cells were pre-treated with the compounds (0, 0.1, 1.0, 10, 100 μM) for 1 hour prior to stimulation. Cells were stimulated with […] of Dermatophagoides pteronyssinus (Der p1) antigen. After 48 hours, fresh […] of Der p1 was added and continued incubating for a further 72 hours at 37° C. with 5% (v/v) CO2. Overall T cells were stimulated with […] of Der p1 antigen for 5 days before supernatants were collected and stored at −80° C. until quantitative detection assays are performed.
Human Interleukin-4 (IL-4), Interleukin-5 (IL-5), Interleukin-6 (IL-6), Interleukin-8 (IL-8), Interleukin-13 ([…]), Interleukin-23 (IL-23), and Interferon gamma (IFNγ) released from supernatants collected post stimulation were measured using Human Magnetic Luminex® Assay Kit. Human Transforming Growth Factor beta (TGFβ) was measured using an Enzyme-Linked Immunosorbent Assay (ELISA)-based analysis.

The test system of test [3] is THP-1 derived macrophages. The test can be described thus: Stimulation of THP-1 cells, cytokine release 72 h post stimulation. The format is cell-based, human. The conditions noted are these: 72 h post stimulation (IFN-γ + LPS); 0.1, 1, 10, 100 or 200 μM vs 0 μM. The procedure:
Human immortalized monocytic THP-1 cells were maintained in phenol red free RPMI 1640 medium containing 10% (v/v) fetal bovine serum (FBS), 2 mM L-glutamine, penicillin (100 units/mL), streptomycin (100 μg/mL), amphotericin B (2.5 μg/mL), and 50 μM beta-mercaptoethanol (BME) at 37° C. with 5% (v/v) CO2. THP-1 cells were seeded in 1 mL of THP-1 medium (cell culture medium containing 10% (v/v) FBS, 2 mM L-glutamine, penicillin (100 units/mL), streptomycin (100 μg/mL), amphotericin B (2.5 μg/mL), and 50 μM BME)/well at a density of 1 million cells/mL in six-well plates. Cells were differentiated by adding 100 nM phorbol 12-myristate 13-acetate (PMA) to each well before incubating cells for 5.5 h at 37° C. with 5% (v/v) CO2. Without removing the media, different concentrations (either 0, 0.1, 1, 10, 100, or 200 μM) of 1 and 10 were added to each well. Cells were stimulated, within 30 min by adding 20 ng/mL interferon gamma (IFN-γ) and 100 ng/mL lipopolysaccharide (LPS) to each well. Following stimulation, the THP-1 cells were incubated for 72 h at 37° C. with 5% (v/v) CO2. Supernatant was collected and stored at −80° C. until use.
IL-6 release from supernatant collected at 72 hours post stimulation was measured using the AlphaLISA Human IL-6 detection kit.
TNFα release from supernatant collected at 72 hours post stimulation was measured using the AlphaLISA Human TNFα detection kit.

Test [4] has as its system A549 human alveolar epithelial cells. The test can be described thus: Stimulation of A549 human lung carcinoma cell line, cytokine expression. The format is cell-based. The conditions noted are these: A549, 10 ng/mL TNFα + 10 ng/mL IL-1β, 48 hours. The protocol: A549 cells are cultured in DMEM supplemented with 2 mM glutamine and 10% Fetal Bovine Serum (FBS) at 37° C. with 5% (v/v) CO2. Cells are grown to approximately 80% confluency before being passage and media is changed every 2-3 days. A549 cells are seeded in 24-well plates at a density of 0.5×10^6 cells per well at 37° C. with 5% (v/v) CO2. The cells are pre-treated with the compounds (0, 1.0, 10, 100 μM) for 1 hour prior to addition of 10 ng/mL of TNFα and 10 ng/mL of IL-1β for 48 hours at 37° C. with 5% (v/v) CO2. Supernatants were collected and stored at −80° C. until quantitative detection assays are performed.
Human Eotaxin, Monocyte Chemoattractant Protein-1 (MCP-1), Interleukin-6 (IL-6), Interleukin-25 (IL-25), Interleukin-33 (IL-33), Thymic stromal lymphopoietin (TSLP), and Granulocyte-Macrophage Colony-Stimulating Factor (GM-CSF) released from supernatants collected post stimulation were measured using Human Magnetic Luminex® Assay Kit. Human CCL5/RANTES was measured using an Enzyme-Linked Immunosorbent Assay (ELISA)-based analysis.

Entries after “also recorded” stand apart in the source; their conditions may differ.

With `C[C@H](CC/C=C/C(=O)OCC1CCCCC1)O[C@@H]1O[C@@H](C)[C@H](O)C[C@H]1O` [Compound 3, cyclohexylmethyl (2E,6R)-6-{[(2R,3R,5R,6S)-3,5-dihydroxy-6-methyloxan-2-yl]oxy}hept-2-enoate], in test [1], the “percent inhibition relative to Stimulated of TSLP expression” value is recorded as “statistically significant inhibition; also recorded: completely inhibited”; the “percent inhibition relative to Stimulated of IL-6 expression” value was “inhibited IL-6 expression in statistically significant, dose-dependent manner”; the “percent inhibition relative to Stimulated of MCP-1 expression” value is recorded as “inhibited MCP-1 expression in statistically significant, dose-dependent manner”. Further, in test [2], the “percent inhibition relative to Control of IL-6 levels secreted” value was “inhibited IL-6 expression in statistically significant, dose-dependent manner”. Also, in the test on human naïve T cells, the “percent inhibition relative to Stimulated of IL-6 expression” value is “statistically significant inhibition”, the “percent inhibition relative to Stimulated of IL-8 expression” value is “statistically significant inhibition” and the “percent inhibition relative to Stimulated of TNFα expression” value is on record as “statistically significant inhibition”.

Regarding `C[C@H](CCCCC(=O)OC(C)(C)C)O[C@@H]1O[C@@H](C)[C@H](O)C[C@H]1O` [Compound 10, tert-butyl (R)-6-(((2R,3R,5R,6S)-3,5-dihydroxy-6-methyltetrahydro-2H-pyran-2-yl)oxy)heptanoate], in test [1], the “percent inhibition relative to Stimulated of TSLP expression” value is on record as “statistically significant inhibition; also recorded: robust blocking”; the “percent inhibition relative to Stimulated of IL-6 expression” value is given as “inhibited IL-6 expression in statistically significant, dose-dependent manner”; the “percent inhibition relative to Stimulated of MCP-1 expression” value is on record as “inhibited MCP-1 expression in statistically significant, dose-dependent manner”. In addition, in test [3], the “fold change of IL-6 levels secreted by the THP1-derived macrophages” value was “reduced these levels significantly; also recorded: even more significantly reduced” and the “fold change of TNFα levels secreted by the THP1-derived macrophages” value is “reduced these levels significantly”. In addition, the “percent inhibition relative to Control of IL-6 levels secreted” value in test [2] was “inhibited IL-6 expression in statistically significant, dose-dependent manner”. Also, in test [4] (1.0, 10, 100 μM, FIG. 16, 17), the “percent inhibition relative to Stimulated of GM-CSF expression” value was “overall statistically significant, dose-dependent inhibition”; the “percent inhibition relative to Stimulated of IL-25 expression” value is recorded as “overall statistically significant, dose-dependent inhibition”; the “percent inhibition relative to Stimulated of IL-33 expression” value is “overall statistically significant, dose-dependent inhibition”; the “percent inhibition relative to Stimulated of MCP-1 expression” value is reported as “overall statistically significant, dose-dependent inhibition”. In test [4] (FIG. 18), the “percent inhibition relative to Stimulated of Eotaxin expression” value is given as “robust, statistically significant inhibition”; the “percent inhibition relative to Stimulated of IL-6 expression” value is recorded as “robust, statistically significant inhibition”; the “percent inhibition relative to Stimulated of RANTES expression” value was “robust, statistically significant inhibition”; the “percent inhibition relative to Stimulated of TSLP expression” value is “robust, statistically significant inhibition”.

The values are drawn from patent publication US11845770B2, “Ascaroside derivatives and methods of use” (California Institute of Technology, priority 2019, dated 2023).
